{"source": "patent US12516289B2", "about": "“Methods of producing T memory stem cell populations” (The United States of America, as represented by the …, priority 2012, dated 2026)", "system": "CD45RO−CD62L+ naïve CD8+ T cells", "assay": "Activation of naïve CD8+ T cells in the presence of the GSK-3β inhibitor, phenotypic analysis", "format": "cell-based, human", "protocol": "Candidate human TSCM cells were generated by activating CD45RO^−CD62L^+ naïve CD8^+ T cells in the presence of the GSK-3β inhibitor TWS119. […] To determine whether the CD45RO^−CD62L^+ T cells generated in the presence of TWS119 were truly naïve cells or had acquired memory traits, phenotypic analysis was performed using established markers of T cell activation and differentiation (Appay et al., Cytometry A 73: 975-983 (2008))."}
{"smiles": "Nc1cccc(-c2cc3c(Oc4cccc(O)c4)ncnc3[nH]2)c1", "note": "[TWS119, 3-[[6-(3-aminophenyl)-7H-pyrrolo[2,3-d]pyrimidin-4-yl]oxy]phenol]", "values": [{"measurement": "phenotype of T cells after culture (CD45RO/CD62L)", "setting": "naïve CD8+ T cells activated in presence of TWS119, after 2 weeks", "value": "majority of T cells cultured with TWS119 retained a CD45RO^−CD62L^+ naïve-like phenotype"}, {"measurement": "expression of CD95 and IL-2Rβ by TWS119-generated naïve-like T cells", "setting": "phenotypic analysis, compared with TN and memory T cells", "value": "expressed levels of CD95 and IL-2Rβ similar to those observed in memory T cells"}]}
